Where a name gives a salt, the structure may show the parent alone.

The target of data set [1] is T1, GAA (Homo sapiens, UniProt P10253). The data set is described as follows: GAA levels in cell lines derived from late-onset Pompe patients. It counts as cell-based. Also noted: endogenous in cells. Particulars: cell lines with IVS 1 (−13 T>G) splicing mutation.
Data set [2] addresses T1, GAA. The data set can be described thus: rhGAA enzyme inactivation in whole blood at 37° C. Format: in vitro ADME. Also noted: purchased Genzyme Corp; host or cells: Chinese hamster ovary cell line. Particulars: for enzyme inactivated: whole blood 37° C., no 1-DNJ-HCl. The procedure:
Aliquots were collected at 0, 2, 4, 8 and 24 hrs and centrifuged to obtain plasma. These plasma samples were then diluted in potassium acetate buffer (pH 4.0) and assayed for GAA activity using the 4-methylumbeliferyl-α-glucose (4-MUG) fluorogenic substrate. The measured GAA activity for individual samples at each time point was normalized to the 0 hr and expressed as % of initial activity. Data from 4 independent experiments were analyzed to obtain the mean (and standard deviation) and plotted versus time to assess the loss of enzyme activity over this time course.
Aliquots were collected at 0, 3 and 6 hrs and centrifuged to obtain plasma. These plasma samples were then diluted in potassium acetate buffer (pH 4.0) and assayed for GAA activity using the 4-methylumbeliferyl-α-glucose (4-MUG) fluorogenic substrate. The measured GAA activity for individual samples at each time point was normalized to the 0 hr and expressed as % of initial activity.
Moreover, since Myozyme® has a long plasma half-life (reported to be more than 3 hrs), there is a high probability that an appreciable amount of the enzyme remains in the circulation many hours after the infusion that would also be prone to inactivation.
Based on human plasma PK data, these concentrations are readily obtainable in the clinic.

For data set [3], the target named is T2, recombinant human GAA (Myozyme®) (Homo sapiens, UniProt P10253).
T2 construct: purchased Genzyme Corp; host or cells: Chinese hamster ovary cell line
The data set can be described thus: SYPRO Orange thermal stability assay. Format: binding. As for the experimental part: The thermal stability assay utilizes heat to induce protein denaturation, which is monitored using a SYPRO Orange dye that fluoresces upon binding to hydrophobic amino acids (which are not exposed in a folded protein).
Denaturation is monitored using a SYPRO Orange dye that fluoresces upon binding to hydrophobic amino acids (which are not exposed in a folded protein).
The thermal stability was performed at pH 7.4 for two formulations, which corresponds to the pH of the ER.

A short description of data set [4]: Aggregation of 25 mg/mL Myozyme® at pH 7.4 and 37° C. (Example 10). Format: physicochemical. Particulars: 1 mM DNJ, PBS pH 7.4, 4 weeks at 37° C. The procedure:
Aggregation was assessed after a 4 week incubation period.
A liquid formulation comprising DNJ and GAA was prepared by dissolving DNJ in water to achieve a concentration of 10 mM DNJ. GAA was reconstituted in 1.8 ml water, and dialyzed overnight in phosphate buffered-saline (pH 7.4). […] of DNJ (10 mM) was then be added to 400 microliters of GAA, such that the GAA was at a concentration of 25 mg/ml.
25 mg/mL Myozyme® was incubated with or without 1 mM DNJ in phosphate-buffered saline at pH 7.4. Aggregation of Myozyme® was assessed after incubation for 4 weeks at 37° C.

A short description of data set [5]: Circulating rhGAA after subcutaneous DNJ co-formulated with Myozyme® (FIG. 14). Particulars: DNJ co-formulated with 20 mg/kg Myozyme® vs Myozyme® without DNJ. Format: in vivo.
Data set [6] has as its system GAA KO mice. The data set can be described thus: Tissue glycogen reduction in GAA KO mice, Myozyme® IV with or without oral 1-DNJ-HCl (Example 9). Format: in vivo, mouse. The procedure: Twelve-week old male GAA KO mice were administered a single dose of Myozyme® (40 mg/kg) via bolus tail vein injection every other week for 8 weeks. To prevent anaphylaxis, before the third and fourth Myozyme® injection, diphenhydramine (10 mg/kg intraperitoneally) was administered 10 min before Myozyme® injection. […] Mice were euthanized 14 days after the last Myozyme® administration.
Glycogen levels in heart, diaphragm, soleus, and quadriceps were then measured. […] Briefly, homogenates were prepared by homogenizing ˜50 mg tissue for 3-5 seconds on ice with a microhomogenizer in 200 μL deionized water. Supernatants were heat denatured (99° C. for 10 min) to remove endogenous amyloglucosidase activity. Denatured lysates (4 μL) were then analyzed in duplicate by addition of 36 μL water with and without 10 μL of 800 U/mL of amyloglucosidase (Sigma Aldrich, St. Louis, Mo.) and incubated for 1 hour at 50° C. The reaction was stopped by inactivation at 100° C. for 10 min. Finally, 200 μL of glucose reagent (Sigma) was added absorbance read at 340 nm on Spectramax. A standard curve ranging from 5 μg/mL to 400 μg/mL Type III rabbit liver glycogen (Sigma) was run each day for conversion of absorbance to absolute glycogen units. Simultaneously, the amount of protein was determined in tissue homogenates using the Micro BCA Protein Assay (Pierce, Rockford, Ill.) following the manufacturer's instructions. The glycogen content of each sample was normalized to protein, and data were finally expressed as micrograms of glycogen per milligram of protein (μg/mg protein).

Data set [7] has as its system GAA KO mice. The data set can be described thus: Tissue rhGAA activity after repeat IV Myozyme® in GAA KO mice. Format: in vivo, mouse. Particulars: 20 mg/kg IV bolus, 4 doses at 2 week intervals, 3 days after last dose. From the text: (§1) Mice were euthanized 3 days after the last administration for tissue GAA activity measurement and 14 days after the administration for glycogen measurement. Data was compared with uptake (on day 3) and glycogen reduction (on day 14) of historical Lumizyme® IV alone study. Tissue samples included heart, diaphragm, tongue, ventral skin (non-injection site), skin from the hind limb injection site, skin from the shoulder SQ injection site, left and right limb muscles (biceps, triceps, quadriceps, soleus and gastrocnemius). GAA activities in tissues were determined using a 4-MUG fluorogenic substrate assay. Glycogen levels were determined using a glycogen assay (see Example 9 for method).
For both studies, the enzyme activities in tissues were assessed three days after the last (fourth) administration.

Data set [8] deals with GAA KO mice. The data set is described as follows: Tissue glycogen reduction after repeat IV Myozyme® in GAA KO mice. It counts as in vivo, mouse. Particulars: 20 mg/kg IV bolus, 4 administrations at two-week intervals, 14 days after last.
Source text: as §1

The conditions of data set [9]: rat, iv. As for the experimental part: Four groups of rats were administered one of the following dosing regimens:
(2) 10 mg/kg of rhGAA+Water;

On to `OC[C@H]1NC[C@H](O)[C@@H](O)[C@@H]1O` [1-DNJ-HCl, 1-deoxynojirimycin hydrochloride], for which the GAA levels entry in data set [1] was “increased GAA levels alone and in combination with hrGAA”. The “loss of rhGAA activity” value in data set [2] (2.5 μM 1-DNJ-HCl, whole blood, 6-hr time course) was roughly 20%. Also, the “rhGAA activity in whole blood” value in [2] (50 μM 1-DNJ-HCl, 37° C., up to 24 hrs) is “remained completely active throughout the study”. In data set [3] (100 μM 1-DNJ-HCl, pH 7.4, vs formulation without ASSC), the “thermal stability of rhGAA (heat to denature)” value is recorded as “required significantly more heat to denature”. In addition, the “GAA thermostability (melting temperature)” value in data set [3] (Myozyme® plus 1, 10, 100 μM 1-DNJ-HCl) is “increases GAA thermostability”.
`OC[C@H]1NC[C@H](O)[C@@H](O)[C@@H]1O` [DNJ, 1-deoxynojirimycin]: the “aggregation of Myozyme®” value in data set [4] is on record as “reduced aggregation of Myozyme®”. Moreover, in data set [5], the “circulating levels of rhGAA” value is given as “increased the circulating levels of rhGAA”.
As to “Myozyme®: alglucosidase alfa, recombinant human acid α-glucosidase from Genzyme Corporation”, the “Glycogen reduction relative to untreated mice” value is on record as 41±4% in [6] (diaphragm, same regimen); 93±1% in data set [6] (heart, Myozyme® 40 mg/kg IV every other week for 8 weeks, +/- 30 mg/kg oral 1-DNJ-HCl); 18±4% in [6] (quadriceps, same regimen); 69±3% in data set [6] (soleus, same regimen). The rhGAA activity uptake came out at 10.1 nmol/mg/h in data set [7] (Biceps); 7.1 nmol/mg/h in [7] (Diaphragm); 17.9 nmol/mg/h in data set [7] (Gastrocnemius); 1.8 nmol/mg/h in data set [7] (Heart); 6.9 nmol/mg/h in [7] (Quadriceps); 27.1 nmol/mg/h in data set [7] (Skin). The rhGAA activity uptake came to 8.0 nmol/mg/h in data set [7] (Soleus, 20 mg/kg); 8 nmol/mg/h in [7] (Soleus, listed as rhGAA (Myozyme), 20 mg/kg); 12.4 nmol/mg/h in data set [7] (Tongue); 3.9 nmol/mg/h in data set [7] (Triceps). For the same compound, the “Glycogen reduction (% of untreated)” value in data set [8] (Biceps) is recorded as 5%; in data set [8] (Diaphragm) it was 19%; in [8] (Gastrocnemius), 15%; in data set [8] (Heart), 51%; in data set [8] (Quadriceps), 8%; in data set [8] (Skin, 20 mg/kg) it was “No reduction”. Also, the “Glycogen reduction (% of untreated)” value is on record as “No” in data set [8] (Skin, listed as rhGAA (Myozyme), 20 mg/kg); 54% in [8] (Tongue); 4% in data set [8] (Triceps).
For “rhGAA: recombinant human acid α-glucosidase (e.g., Myozyme®)”, the “in vivo half life of rhGAA” value in [9] amounted to 1.4 ± 0.2 h. In addition, the enzyme inactivated entry was “approximately 40%” in [2] (by 4 hrs), roughly 70% in data set [2] (by 8 hrs) and roughly 100% in data set [2] (by 24 hrs).
